One data set has as its target T1, Parkin ligase (Homo sapiens, UniProt O60260).
T1 sequence (O60260 1-465): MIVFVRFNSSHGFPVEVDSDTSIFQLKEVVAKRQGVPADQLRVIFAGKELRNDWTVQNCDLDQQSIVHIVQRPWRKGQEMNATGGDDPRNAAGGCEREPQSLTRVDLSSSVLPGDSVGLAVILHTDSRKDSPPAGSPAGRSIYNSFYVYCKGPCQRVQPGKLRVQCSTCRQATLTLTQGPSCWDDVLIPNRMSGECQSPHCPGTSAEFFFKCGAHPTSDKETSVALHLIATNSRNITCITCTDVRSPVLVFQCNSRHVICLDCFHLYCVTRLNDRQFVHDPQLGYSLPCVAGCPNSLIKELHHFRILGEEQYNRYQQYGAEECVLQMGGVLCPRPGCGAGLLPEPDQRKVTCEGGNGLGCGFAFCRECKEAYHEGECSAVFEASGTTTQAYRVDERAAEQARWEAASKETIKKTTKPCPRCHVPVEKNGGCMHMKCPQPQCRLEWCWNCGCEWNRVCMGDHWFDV
Briefly: Activity-Based Probe Assay using Ubiquitin vinyl sulfone probe (TR-FRET). Particulars: heat activated Parkin, HA-Ub-VS probe, activation EC50; read-out: Probe Assay EC50 (μM) [Example 2]. It counts as biochemical. The protocol: An Ubiquitin vinyl sulfone probe can be used that irreversibly binds to the active site cysteine of Parkin ligase. Covalent attachment of the probe to the Parkin can be monitored by TR-FRET. Candidate activator compounds can be identified by increasing the activity of Parkin ligase due to an increase in TR-FRET signal. Screening for activating compounds can be distinguished from the controls as follows: 100% activation signal=Heat activated Parkin+100 nM control activator in DMSO. 0% activation signal=Heat activated Parkin+DMSO only. Parkin activators can be identified by an increase of the 0% activation signal TR-FRET signal. Assay Conditions: Materials: • Assay Plate: White 384 well plate (Corning 3572) • Enzyme: Parkin-His tagged 203 μM (10.5 mg/ml) • Probe: Ubiquitin vinyl-sulfone (HA-Ub-VS Boston Biochem U-212) • DMSO: DMSO (Sigma cat #D4540-100ML) • Reaction Buffer: 50 mM HEPES (pH 8.5), 150 mM NaCl, 0.01% Tween 20, 0.1% BSA • Detection Buffer: 50 mM HEPES (pH 8.5), 150 mM NaCl, 0.01% Tween 20, 0.1% BSA, 800 mM KF • Detection Reagent A: 2.6 nM Anti-6HIS-Eu cryptate and 40 nM Anti-HA-XL665 in detection buffer • Eu cryptate: Anti-6HIS-Eu cryptate (CisBio 61HISKLA) • XL665: Anti-HA-XL665 (CisBio 610HAXLA) Enzyme Reaction (15 Min Pre Incubation Parkin with Activator Only) • Parkin: 40 nM • HA-Ub-VS Probe: 70 nM • Activator/DMSO: 2× Activator/2% DMSO Reaction time: 60 minutes Temperature: 22° C. Total volume: 10 μl reaction Detection Reaction Take […] of Enzyme Reaction above and add 10 μl detection Reagent A under the following conditions: • Reaction time: 60 minutes • Temperature: 22° C. • Total volume: 20 μl
Assay procedure (Using HP D-300 compound dispenser and Bravo for the operation):
1) Heat activate Parkin in reaction buffer (500 μl/1.5 ml tube: Eppendorf Thermomixer 5 minutes, 400 rpm at 58° C. and put on ice until needed).
2) Load assay plate wells with 4.8 μl 84.5 nM Parkin in reaction buffer by use of Bravo.
3) Deliver 0.2 μl 200× activator candidates in DMSO by use of HP D-300 compound dispenser. Highest 200× concentration=[…] and then twofold dilutions.
4) Spin 1000 rpm, 2 minutes, at room temp.
5) Incubate plate for 15 minutes at room temp.
6) Add 5 μl 140 nM HA-Ub-VS Probe in reaction buffer by use of Bravo.
7) Spin 1000 rpm, 2 minutes, at room temp.
8) Incubate plate for 60 minutes at room temp.
9) Add 10 μl 2.6 nM Anti-6HIS-Eu cryptate and 40 nM […] in detection buffer.
10) Spin 1000 rpm, 2 minutes, at room temp.
11) Incubate plate for 60 minutes at room temp.
12) Read plates on Perkin Elmer Envision instrument with the following parameters:
LANCE dual laser protocol loaded into the Envision® software
Top Mirror: LANCE/DELFIA Duel/Bias (Bar code 446)
Emission Filter: APC 665 EM (Bar code 205)
2nd Emission Filter: Europium 615 EM (Bar code 203)
Read 655 nm (channel 1) and 615 nm (channel 2) wavelengths on Envision®
Data Analysis: The Data can be read in CSV files. There are two tables in those CSV files, which are the values of 655 nm (channel 1) and 615 nm (channel 2) wavelengths respectively. The data is converted to an HTRF Ratio=(Channel 1/Channel 2)*10,000
The average of all the 0 μM controls (DMSO only)=BKGD (Background—0% activation). Subtract BKGD from each HTRF Ratio value=HTRF−BKGD. The average of all the […] 100 nM control activator in DMSO controls=Max (100% activation). The following equation is then used to calculate % Activation for each well/candidate as follows: % Activation=(HTRF−BKGD/Max)*100.
Graphpad Prism was used with Transform X values: X=Log(X) and nonlinear regression (dose-response-stimulation): Log(agonist) vs Response−variable slope (four parameters) with constrains set to Bottom=0 and Top=100.
The Activity-Based Probe Assay was performed with various compounds in Tables 1, 2, 3A and 3B.
Background: TR-FRET usually uses a lanthanide donor and a delayed reading to cut background.

The nature of data set [1]: Microsomal stability assay, rat liver microsomes. It counts as in vitro ADME. Particulars: pH 7.4; rat liver microsomes 1.0 mg/mL, 1 μM compound, NADPH; read-out: RLM t1/2. The protocol:
Compounds were also tested for metabolic stability in both rat liver microsomes (RLM) and the compounds are tested for human liver microsomes (HLM) and their half-life is calculated (See Tables 5A and 5B). The assay was performed as follows. The total volume for each incubation was 250 μL. A 100 μM DMSO solution of compound (diluted from 10 mM stock solution) was spiked into 50 mM KH2PO4 (pH 7.4) buffer containing liver microsome at a concentration of 1.0 mg/mL. The reaction was initiated by the addition of 50 μL of 1 mM NADPH. The final concentration of each compound was 1 μM (1% DMSO). The positive controls, phenacetin for CYP1A2, diclofenac for CYP2C9, omeprazole for CYP2C19, dextromethorphan for CYP2D6 and midazolam for CYP3A4 were added to a separate tube with the final substrate concentrations of 1 μM (1% DMSO) for evaluating the enzyme activities in the liver microsomes. At 0, 15, 30 and 60 min, an aliquot of 15 μL reaction mixtures were removed and 200 μL of methanol (with internal standard of 25 ng/mL propranolol) was added to quench the reaction. The resulting mixture was centrifuged and supernatant was used for LC-MS/MS analysis.
The signals for each compound, or the metabolites for the probe substrates and the internal standard were integrated and the peak area ratios to internal standard were generated. Percent parent remaining at a specified timepoint was calculated based on the peak area ratios at time 0 (as 100%) for in vitro metabolic stability studies in liver microsome and hepatocyte. The observed rate constant (kobs) for the metabolism of substrates was calculated by plotting the natural log of percentage substrate remaining versus time of incubation with the slope being kobs. The half-life (T1/2) was calculated according to the following equation: T1/2=[…]
A general note: Liver microsomes are vesicles of endoplasmic reticulum, rich in cytochrome P450 enzymes.

The test system of another data set is A549 (lung). The data set can be described thus: Cancer cell proliferation assay (acid phosphatase). It counts as cell-based. Particulars: Homo sapiens, A549, 72 h, Table 6A; 72 hrs; read-out: A549 IC50. The protocol:
(§1) Measurement of the inhibitive effect of compounds on cancer cell proliferation was performed. Various cell lines were tested, including HCT-116 (colon); A549 (lung); TOV-21G (ovarian); Calu-6 (lung); and LS-174T (colon); and cell lines H1703 (Lung) and SKOV3 (ovarian); JEKO-1 (lymophoma); TOV-112D (ovarian) are tested. The assays were performed under the following conditions: Cells are harvested at a concentration of 4×10^4 cells/ml in media. Volumes of 100 μl/well of these cell suspensions were added to a 96 well plate using a multichannel pipette. Plates were gently agitated to ensure an even dispersion of cells over a given plate. Cells were then incubated at 37° C., 5% CO2 overnight. Following this, 100 μl of compound at varying concentrations was added to wells in triplicate. Control wells are those with 100 μl media containing 0.33% DMSO added to cell suspension (this is the equivalent volume of DMSO found in the highest concentration of drug). Plates were then gently agitated, as above, and incubated at 37° C., 5% CO2 for 72 hrs (control wells have reached 80-90% confluency). Assessment of cell proliferation in the presence of the compound was determined by the acid phosphatase assay.
(§2) Following the incubation period of 72 hrs, media was removed from the plates. Each well on the plate was washed twice with 100 μl PBS. This was then removed and 100 μl of freshly prepared phosphatase substrate (10 mM p-nitrophenol phosphate in 0.1M sodium acetate, 0.1% triton X-100, pH 5.5) was added to each well. The plates were then incubated in the dark at 37° C. for 2 hours. Colour development was monitored during this time. The enzymatic reaction was stopped by the addition of 50 μl of 1N NaOH. The plate was read in a dual beam plate reader at 405 nm with a reference wavelength of 620 nm. The absorbance reading of the latter is subtracted from the former, and the effect of the drug on cell proliferation was then measured as a percentage against the control cells (DMSO), which is taken as 0% inhibition.

For another data set, the system named is TOV-21G (ovarian). The data set can be described thus: Cancer cell proliferation assay (acid phosphatase). It counts as cell-based. Particulars: Homo sapiens, TOV21G, 72 h, Table 6A; 72 hrs; read-out: TOV-21G IC50. The protocol: as §1, §2

Where “and” joins values, the source holds several entries; their conditions need not be identical. Equal entries are not always repeated.

What is called EC50 is the midpoint of the concentration-response curve. Regarding `Cc1ccccc1C(=O)Nc1nc(NC(=O)c2ncco2)n(-c2ccccc2)n1` [Compound 10], at Parkin ligase, the concentration giving a half-maximal response (EC50) was found to be 30 µM. Further, in data set [1], the half-life at 1 μM turned out to be 0.45 h. For the compound `Cc1ccccc1C(=O)Nc1nc(NC(=O)c2cocn2)n(-c2ccccc2)n1` [Compound 9], at Parkin ligase, the concentration giving a half-maximal response (EC50) stood at 32 µM. Further, in data set [1], the half-life at 1 μM was determined as 0.967 h. In the case of `C#Cc1cccc(C(=O)Nc2nc(NC(=O)c3cccc(N=[N+]=[N-])c3)nn2-c2ccccc2)c1` [Compound 29], the EC50 on Parkin ligase is 2 µM. The half-life at 1 μM in data set [1] turned out to be 0.783 h. Consider `Cc1ccccc1C(=O)Nc1nc(NC(=O)c2cccnn2)n(-c2ccccc2)n1` [Compound 13], for which, at Parkin ligase, the EC50 was 7 µM. The half-life at 1 μM in data set [1] came out at 0.85 h. As to `C#Cc1cccc(C(=O)Nc2nc(NC(=O)c3ccc(N=[N+]=[N-])cc3)n(-c3ccccc3)n2)c1` [Compound 18], the concentration giving a half-maximal response (EC50) at Parkin ligase is 1 µM and 3 µM. In addition, the half-life at 1 μM in data set [1] came to 1.72 h. As to `Cc1ccccc1C(=O)Nc1nc(-c2cccc(F)n2)nn1-c1ccccc1` [Compound 123], at Parkin ligase, the concentration for a half-maximal effect (EC50) turned out to be 7 µM. Besides, in data set [1], the half-life at 1 μM worked out at 1.4 h. For `C#Cc1ccccc1C(=O)Nc1nc(NC(=O)c2cccc(N=[N+]=[N-])c2)n(-c2ccccc2)n1` [Compound 8], in that order: 4 µM and 1.18 h. What is called IC50 is the concentration needed to halve the response being measured. As to `Cc1ccccc1C(=O)Nc1nc(NC(=O)c2ccccc2C)n(-c2ccc(N3CCC(O)C3)cc2)n1` (centres unmarked) [Compound 58], at Parkin ligase, the concentration for a half-maximal effect (EC50) came out at 7 µM. Besides, the IC50 with A549 (lung) was determined as 2.6 µM; in the data set with TOV-21G (ovarian), 2.4 µM. Turning to `C#Cc1cccc(C(=O)Nc2nc(NC(=O)c3cccc(N=[N+]=[N-])c3)n(-c3ccccc3)n2)c1` [Compound 11], at Parkin ligase, the EC50 turned out to be 2 µM. Besides, the half-life at 1 μM in data set [1] came to 2.45 h. Taken in the same sequence, the figures for `Cc1ccccc1C(=O)Nc1nc(NC(=O)c2ncccn2)n(-c2ccccc2)n1` [Compound 28] were 22 µM and 0.333 h. For `COc1cccc(C(=O)Nc2nc(NC(=O)c3cccc(OC)c3)n(-c3ccccc3)n2)c1` [Compound 27], in that order: 3 µM and 0.317 h. On to `C#Cc1cccc(C(=O)Nc2nc(NC(=O)c3ccc(N=[N+]=[N-])cc3)nn2-c2ccccc2)c1` [Compound 12], for which the half-maximal effective concentration (EC50) on Parkin ligase was 1 µM and 3 µM. Moreover, in data set [1], the half-life at 1 μM came to 2.1 h. On to `Cc1ccccc1C(=O)Nc1nc(NC(=O)[C@@H]2C[C@H](F)CN2)nn1-c1ccccc1` [Compound 3], for which the concentration for a half-maximal effect (EC50) at Parkin ligase is 16 µM and > 100 µM. Further, the half-inhibitory concentration (IC50) in the data set on TOV-21G (ovarian) came out at 2.4 µM. Consider `Cc1ccccc1C(=O)Nc1nc(-c2ccccc2O)nn1-c1ccc(OC(F)(F)F)cc1` [Compound 137], for which the EC50 on Parkin ligase is 4 µM. Besides, the half-life at 1 μM in data set [1] turned out to be 1.22 h. Take `Cc1ccccc1C(=O)Nc1nc(NC(=O)C2CCN2)nn1-c1ccccc1` (centres unmarked) [Compound 5]: the EC50 at Parkin ligase is 3 µM. Besides, the half-life at 1 μM in data set [1] is 2.18 h. In the case of `Cc1ccccc1C(=O)Nc1nc(N[C@@H](C)c2ccccc2)nn1-c1ccc(C(F)(F)F)cc1` [Compound 120], the EC50 at Parkin ligase was determined as 1 µM. Still for that read-out and setting: for `Cc1ccccc1C(=O)Nc1nc(NC(=O)c2ccncc2)nn1-c1ccc(Cl)cc1` [Compound 92] the value was 2 µM. The same measure, in the same setting: for `Cc1ccccc1C(=O)Nc1nc(NC(=O)C2CCCCN2)nn1-c1ccccc1` (centres unmarked) [Compound 51] the value was 84 µM; for `C#Cc1ccc(C(=O)Nc2nc(NC(=O)c3cccc(N=[N+]=[N-])c3)nn2-c2ccccc2)cc1` [Compound 48], 2 µM.
